Test results published in US20240376094A2, “SELECTIVE BCL-XL PROTAC COMPOUNDS AND METHODS OF USE” (Les Laboratoires Servier, priority 2021, published 2024).
pIC50: −log10 of the molar value.

target: T1, Bcl-xL (Homo sapiens, UniProt Q07817); test: HCT116 Bcl-xL degradation, capillary-based immunoassay (WES); assay type: cell-based; details: HCT116, 24 h, 9-point serial dilution
T1 construct: Measured levels of Bcl-xL protein of HCT116 cells treated with the tested compounds; host or cells: HCT116
T1 sequence (Q07817 whole entry): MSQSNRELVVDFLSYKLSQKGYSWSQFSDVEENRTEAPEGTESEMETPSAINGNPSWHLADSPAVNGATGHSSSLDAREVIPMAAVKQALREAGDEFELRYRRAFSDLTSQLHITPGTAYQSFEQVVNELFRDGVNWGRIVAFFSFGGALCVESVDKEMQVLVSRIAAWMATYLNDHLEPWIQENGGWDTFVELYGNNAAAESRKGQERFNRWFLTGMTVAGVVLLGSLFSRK
Method: HCT116 cells were purchased from ATCC and cultivated in RPMI 1640 supplemented with 10% heat inactivated fetal bovine serum, penicillin (100 IU/mi), streptomycin (100 μg/ml) and L-glutamine (2 mM). Cells were cultured at 37° C. in a humidified atmosphere containing 5% CO2. Cells were seeded in 96 microwell plates, 24 h later cells were treated with compounds (2-point 10/100 nM and/or 9-point serial dilution to determine DC50; quadruplicates) during 24 h and harvested in lysis buffer containing 10 mM Hepes (pH 7.5), 150 mM KCl, 5 mM MgCl2, 1 mM EDTA, 0.4% TritonX100, protease and phosphatase inhibitors cocktails (Calbiochem).
Protein concentration in the supernatants was determined using the Pierce BCA protein assay kit (Thermo Fisher Scientific). Lysates (1.5 μg/μL) were analyzed using an automated capillary electrophoresis WES system with 2-40 kDa Wes Separation Module (25 capillary cartridges, Proteinsimple), in accordance with the manufacturer's protocols. Antibodies against the following proteins were used: Bcl-xL (#2764, Cell Signaling Technology, 1:50) and cofilin (#5175, Cell Signaling Technology, 1:1000). Signals were detected with an HRP-conjugated secondary anti-rabbit antibody (#042-206, Proteinsimple) and were quantified using Compass software (version 4.0, Proteinsimple).
Bcl-xL level was calculated by normalizing Bcl-xL values to cofilin and expressed as a percentage of the normalized value of the untreated cells. DC50 were calculated using standard four-parametric curve fitting. DC50 is defined as the compound concentration at which Bcl-xL is reduced to 50% of that measured for the control. Measured levels of Bcl-xL protein of HCT116 cells treated with the tested compounds at 2-point 10 nM/100 nM and/or 9-point for DC50 determination are shown in Table 15.

Question: How did the DC50 turn out when Cc1c(Nc2nc3ccccc3s2)nnc2c1CCCN2c1ccc(-c2cnn(CC34CC5(C)CC(C)(C3)CC(OCCN(C)CCCCCC(=O)N3CCC(c6ccc7c(c6)CN(C6CCC(=O)NC6=O)C7=O)CC3)(C5)C4)c2C)c(C(=O)O)n1 (stereo not drawn) [Example 67, 6-[3-(1,3-benzothiazol-2-ylamino)-4-methyl-6,7-dihydro-5H-pyrido[2,3-c]pyridazin-8-yl]-3-[1-[[3-[2-[[6-[4-[2-(2,6-dioxo-3-piperidyl)-1-oxo-isoindolin-5-yl]-1-piperidyl]-6-oxo-hexyl]-methyl-amino]ethoxy]-5,7-dimethyl-1-adamantyl]methyl]-5-methyl-pyrazol-4-yl]pyridine-2-carboxylic acid] was run?
Answer: > 316 nM

Question: Which DC50 does the source give for Cc1c(Nc2nc3ccccc3s2)nnc2c1CCCN2c1ccc(-c2cnn(CC34CC5(C)CC(C)(C3)CC(OCCN(C)CCCCCCCCCCCCCCCC(=O)N3CCC(c6ccc7c(c6)CN(C6CCC(=O)NC6=O)C7=O)CC3)(C5)C4)c2C)c(C(=O)O)n1 (stereo not drawn) [Example 74, 6-[3-(1,3-benzothiazol-2-ylamino)-4-methyl-6,7-dihydro-5H-pyrido[2,3-c]pyridazin-8-yl]-3-[1-[[3-[2-[[16-[4-[2-(2,6-dioxo-3-piperidyl)-1-oxo-isoindolin-5-yl]-1-piperidyl]-16-oxo-hexadecyl]-methyl-amino]ethoxy]-5,7-dimethyl-1-adamantyl]methyl]-5-methyl-pyrazol-4-yl]pyridine-2-carboxylic acid] here?
Answer: 0.133 nM

test system: MOLT-4 cells; test: MOLT-4 cell viability, CTG assay; assay type: cell-based; details: Homo sapiens, MOLT-4, 48 h
Excerpt: The MTT colorimetric assay is based on the mitochondrial reduction of tetrazolium salt by living cells. The viable cell number is proportional to the production of formazan salts, which can be read spectrophotometrically at 540 nm. The CTG luminescent assay (CellTiter GLO, Promega) is based on a reagent which lyses cells and measures total adenosine triphosphate (ATP) content. The viable cell number is proportional to the production of ATP.
MOLT-4 cells were purchased from ATCC and cultivated in RPMI 1640 supplemented with 10% heat inactivated fetal bovine serum, penicillin (100 IU/mi), streptomycin (100 μg/ml) and L-glutamine (2 mM). Cells were cultured at 37° C. in a humidified atmosphere containing 5% […].
For CTG assay, cells were seeded in 384 microwell plates (40 μL per well) and exposed to the compounds for 48 h (11-point serial dilution with 5-fold factor, triplicates). At the end of incubation time, 40 μL of CTG solution were added per well. Wells were mixed thoroughly, and plates were incubated at room temperature for 10 minutes to stabilize luminescent signals prior to reading using a luminescence reader (PHERAStar FSX Reader, BMG Labtech).
IC50, were calculated using standard four-parametric curve fitting. IC50 is defined as the compound concentration at which the MTT or CTG signal is reduced to 50% of that measured for the control. Results shown in Table 14 represent the mean of at least 2 independent experiments.

Question: With Cc1c(Nc2nc3ccccc3s2)nnc2c1CCCN2c1ccc(-c2cnn(CC34CC5(C)CC(C)(C3)CC(OCCN(C)CCCCCC(=O)N3CCC(c6ccc7c(c6)CN(C6CCC(=O)NC6=O)C7=O)CC3)(C5)C4)c2C)c(C(=O)O)n1 (stereo not drawn) [Example 67, 6-[3-(1,3-benzothiazol-2-ylamino)-4-methyl-6,7-dihydro-5H-pyrido[2,3-c]pyridazin-8-yl]-3-[1-[[3-[2-[[6-[4-[2-(2,6-dioxo-3-piperidyl)-1-oxo-isoindolin-5-yl]-1-piperidyl]-6-oxo-hexyl]-methyl-amino]ethoxy]-5,7-dimethyl-1-adamantyl]methyl]-5-methyl-pyrazol-4-yl]pyridine-2-carboxylic acid] as the molecule, how does the pIC50 read?
Answer: 7.62

Question: With Cc1c(Nc2nc3ccccc3s2)nnc2c1CCCN2c1ccc(-c2cnn(CC34CC5(C)CC(C)(C3)CC(OCCN(C)CCCCCCCCCCC(=O)N3CCC(c6ccc7c(c6)CN(C6CCC(=O)NC6=O)C7=O)CC3)(C5)C4)c2C)c(C(=O)O)n1 (stereo not drawn) [Example 75, 6-[3-(1,3-benzothiazol-2-ylamino)-4-methyl-6,7-dihydro-5H-pyrido[2,3-c]pyridazin-8-yl]-3-[1-[[3-[2-[[11-[4-[2-(2,6-dioxo-3-piperidyl)-1-oxo-isoindolin-5-yl]-1-piperidyl]-11-oxo-undecyl]-methyl-amino]ethoxy]-5,7-dimethyl-1-adamantyl]methyl]-5-methyl-pyrazol-4-yl]pyridine-2-carboxylic acid] as the molecule, how does the pIC50 read?
Answer: 8.23

Question: With CN[C@@H](C)C(=O)N[C@H](C(=O)N1CCC[C@H]1c1nc(C(=O)c2cccc(OCCCCN(C)CCOC34CC5(C)CC(C)(CC(Cn6ncc(-c7ccc(N8CCCc9c8nnc(Nc8nc%10ccccc%10s8)c9C)nc7C(=O)O)c6C)(C5)C3)C4)c2)cs1)C1CCCCC1 [Example 99, 6-[3-(1,3-benzothiazol-2-ylamino)-4-methyl-6,7-dihydro-5H-pyrido[2,3-c]pyridazin-8-yl]-3-[1-[[3-[2-[4-[3-[2-[(2S)-1-[(2S)-2-cyclohexyl-2-[[(2S)-2-(methylamino)propanoyl]amino]acetyl]pyrrolidin-2-yl]thiazole-4-carbonyl]phenoxy]butyl-methyl-amino]ethoxy]-5,7-dimethyl-1-adamantyl]methyl]-5-methyl-pyrazol-4-yl]pyridine-2-carboxylic acid] as the molecule, how does the pIC50 read?
Answer: 8.34

Question: With CN[C@@H](C)C(=O)N[C@H](C(=O)N1CCC[C@H]1c1nc(C(=O)c2cccc(OCCCCCCCCCCCCCCN(C)CCOC34CC5(C)CC(C)(CC(Cn6ncc(-c7ccc(N8CCCc9c8nnc(Nc8nc%10ccccc%10s8)c9C)nc7C(=O)O)c6C)(C5)C3)C4)c2)cs1)C1CCCCC1 [Example 100, 6-[3-(1,3-benzothiazol-2-ylamino)-4-methyl-6,7-dihydro-5H-pyrido[2,3-c]pyridazin-8-yl]-3-[1-[[3-[2-[14-[3-[2-[(2S)-1-[(2S)-2-cyclohexyl-2-[[(2S)-2-(methylamino)propanoyl]amino]acetyl]pyrrolidin-2-yl]thiazole-4-carbonyl]phenoxy]tetradecyl-methyl-amino]ethoxy]-5,7-dimethyl-1-adamantyl]methyl]-5-methyl-pyrazol-4-yl]pyridine-2-carboxylic acid] as the molecule, how does the pIC50 read?
Answer: 8.08
